Results taken from patent US20130303509A1, “NAMPT INHIBITORS” (AbbVie Inc., priority 2012, published 2013).

tested on: PC3 cells; test: NAMPT Cell Proliferation Assay; type: cell-based; settings: Homo sapiens, PC-3, 120 h, 5 days incubation, cell viability by Cell Titer Glo
Method in brief: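 Five-day CellTiter-Glo viability readout in PC3 cells grown in RPMI/10% heat-inactivated FBS. Compounds added after overnight attachment as a 10-fold dilution series, […]. Percent inhibition fitted to sigmoidal dose-response to derive IC50.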

Row | SMILES | IC50 [nM]
1 | O=C(Nc1ccc(C2CCN(C(=O)Cc3ccccc3F)CC2)cc1)C1CN(c2cccnn2)C1 [Example 366, N-(4-{1-[(2-fluorophenyl)acetyl]piperidin-4-yl}phenyl)-1-(pyridazin-3-yl)azetidine-3-carboxamide] | 6.57
2 | O=C(Nc1ccc(C2CCN(C(=O)Cc3cccc(F)c3)CC2)cc1)C1CN(c2cccnn2)C1 [Example 367, N-(4-{1-[(3-fluorophenyl)acetyl]piperidin-4-yl}phenyl)-1-(pyridazin-3-yl)azetidine-3-carboxamide] | 6.38
3 | O=C(Nc1ccc(C2CCN(C(=O)Cc3ccc(F)cc3)CC2)cc1)C1CN(c2cccnn2)C1 [Example 368, N-(4-{1-[(4-fluorophenyl)acetyl]piperidin-4-yl}phenyl)-1-(pyridazin-3-yl)azetidine-3-carboxamide] | 7.7
4 | O=C(Nc1ccc(C2CCN(C(=O)Cc3ccccc3Cl)CC2)cc1)C1CN(c2cccnn2)C1 [Example 369, N-(4-{1-[(2-chlorophenyl)acetyl]piperidin-4-yl}phenyl)-1-(pyridazin-3-yl)azetidine-3-carboxamide] | 2.14
5 | O=C(Nc1ccc(C2CCN(C(=O)Cc3ccc(Cl)cc3)CC2)cc1)C1CN(c2cccnn2)C1 [Example 370, N-(4-{1-[(4-chlorophenyl)acetyl]piperidin-4-yl}phenyl)-1-(pyridazin-3-yl)azetidine-3-carboxamide] | 8.79
6 | O=C(Nc1ccc(C2CCN(C(=O)Cc3ccc(C(F)(F)F)cc3)CC2)cc1)C1CN(c2cccnn2)C1 [Example 371, 1-(pyridazin-3-yl)-N-[4-(1-{[4-(trifluoromethyl)phenyl]acetyl}piperidin-4-yl)phenyl]azetidine-3-carboxamide] | 8.94
7 | Cc1cc(C)cc(CC(=O)N2CCC(c3ccc(NC(=O)C4CN(c5cccnn5)C4)cc3)CC2)c1 [Example 372, N-(4-{1-[(3,5-dimethylphenyl)acetyl]piperidin-4-yl}phenyl)-1-(pyridazin-3-yl)azetidine-3-carboxamide] | 7.06
8 | O=C(Nc1ccc(C2CCN(C(=O)Cc3cc(F)ccc3F)CC2)cc1)C1CN(c2cccnn2)C1 [Example 373, N-(4-{1-[(2,5-difluorophenyl)acetyl]piperidin-4-yl}phenyl)-1-(pyridazin-3-yl)azetidine-3-carboxamide] | 5.95
9 | O=C(Nc1ccc(C2CCN(C(=O)Cc3ccc(Cl)c(Cl)c3)CC2)cc1)C1CN(c2cccnn2)C1 [Example 374, N-(4-{1-[(3,4-dichlorophenyl)acetyl]piperidin-4-yl}phenyl)-1-(pyridazin-3-yl)azetidine-3-carboxamide] | 6.32
10 | O=C(Nc1ccc(C2CCN(C(=O)c3ccoc3)CC2)cc1)C1CN(c2cccnn2)C1 [Example 375, N-{4-[1-(furan-3-ylcarbonyl)piperidin-4-yl]phenyl}-1-(pyridazin-3-yl)azetidine-3-carboxamide] | 0.87
11 | O=C(Nc1ccc(C2CCN(C(=O)c3cccs3)CC2)cc1)C1CN(c2cccnn2)C1 [Example 376, 1-(pyridazin-3-yl)-N-{4-[1-(thiophen-2-ylcarbonyl)piperidin-4-yl]phenyl}azetidine-3-carboxamide] | 0.62
12 | Cc1ccc(C(=O)N2CCC(c3ccc(NC(=O)C4CN(c5cccnn5)C4)cc3)CC2)s1 [Example 377, N-(4-{1-[(5-methylthiophen-2-yl)carbonyl]piperidin-4-yl}phenyl)-1-(pyridazin-3-yl)azetidine-3-carboxamide] | 2.13
13 | Cc1cnc(C(=O)N2CCC(c3ccc(NC(=O)C4CN(c5cccnn5)C4)cc3)CC2)cn1 [Example 378, N-(4-{1-[(5-methylpyrazin-2-yl)carbonyl]piperidin-4-yl}phenyl)-1-(pyridazin-3-yl)azetidine-3-carboxamide] | 7.09
14 | CC1(C(=O)N2CCC(c3ccc(NC(=O)C4CN(c5cccnn5)C4)cc3)CC2)CC1 [Example 379, N-(4-{1-[(1-methylcyclopropyl)carbonyl]piperidin-4-yl}phenyl)-1-(pyridazin-3-yl)azetidine-3-carboxamide] | 1.07
15 | CCOCCC(=O)N1CCC(c2ccc(NC(=O)C3CN(c4cccnn4)C3)cc2)CC1 [Example 380, N-{4-[1-(3-ethoxypropanoyl)piperidin-4-yl]phenyl}-1-(pyridazin-3-yl)azetidine-3-carboxamide] | 7.57
16 | O=C(Nc1ccc(C2CCN(C(=O)C3(c4ccccc4)CC3)CC2)cc1)C1CN(c2cccnn2)C1 [Example 381, N-(4-{1-[(1-phenylcyclopropyl)carbonyl]piperidin-4-yl}phenyl)-1-(pyridazin-3-yl)azetidine-3-carboxamide] | 1.87
17 | O=C(Nc1ccc(C2CCN(C(=O)CSc3ncccn3)CC2)cc1)C1CN(c2cccnn2)C1 [Example 382, 1-(pyridazin-3-yl)-N-(4-{1-[(pyrimidin-2-ylsulfanyl)acetyl]piperidin-4-yl}phenyl)azetidine-3-carboxamide] | 8.99
18 | CC(=O)N1CCC(C(=O)N2CCC(c3ccc(NC(=O)C4CN(c5cccnn5)C4)cc3)CC2)CC1 [Example 383, N-(4-{1-[(1-acetylpiperidin-4-yl)carbonyl]piperidin-4-yl}phenyl)-1-(pyridazin-3-yl)azetidine-3-carboxamide] | 62.7

Row | SMILES | IC50 [nM]
19 | O=C(Nc1ccc(C2CCN(C(=O)Cc3cc(F)cc(F)c3)CC2)cc1)C1CN(c2cccnn2)C1 [Example 384, N-(4-{1-[(3,5-difluorophenyl)acetyl]piperidin-4-yl}phenyl)-1-(pyridazin-3-yl)azetidine-3-carboxamide] | 8.27
20 | CC(=O)N[C@@H](CC(C)C)C(=O)N1CCC(c2ccc(NC(=O)C3CN(c4cccnn4)C3)cc2)CC1 [Example 385, N-{4-[1-(N-acetyl-L-leucyl)piperidin-4-yl]phenyl}-1-(pyridazin-3-yl)azetidine-3-carboxamide] | 23.2
21 | O=C(Nc1ccc(C2CCN(C(=O)C(c3ccccc3)c3ccccc3)CC2)cc1)C1CN(c2cccnn2)C1 [Example 386, N-{4-[1-(diphenylacetyl)piperidin-4-yl]phenyl}-1-(pyridazin-3-yl)azetidine-3-carboxamide] | 3.18
22 | Cc1c(F)cccc1C(=O)N1CCC(c2ccc(NC(=O)C3CN(c4cccnn4)C3)cc2)CC1 [Example 387, N-{4-[1-(3-fluoro-2-methylbenzoyl)piperidin-4-yl]phenyl}-1-(pyridazin-3-yl)azetidine-3-carboxamide] | 2.2
23 | Cc1ccc(F)cc1C(=O)N1CCC(c2ccc(NC(=O)C3CN(c4cccnn4)C3)cc2)CC1 [Example 388, N-{4-[1-(5-fluoro-2-methylbenzoyl)piperidin-4-yl]phenyl}-1-(pyridazin-3-yl)azetidine-3-carboxamide] | 0.88
24 | Cc1ccc(C(=O)N2CCC(c3ccc(NC(=O)C4CN(c5cccnn5)C4)cc3)CC2)cc1F [Example 389, N-{4-[1-(3-fluoro-4-methylbenzoyl)piperidin-4-yl]phenyl}-1-(pyridazin-3-yl)azetidine-3-carboxamide] | 7.17
25 | O=C(Nc1ccc(C2CCN(C(=O)c3cccc(F)c3F)CC2)cc1)C1CN(c2cccnn2)C1 [Example 390, N-{4-[1-(2,3-difluorobenzoyl)piperidin-4-yl]phenyl}-1-(pyridazin-3-yl)azetidine-3-carboxamide] | 1.5
26 | O=C(Nc1ccc(C2CCN(C(=O)c3ccc(F)cc3F)CC2)cc1)C1CN(c2cccnn2)C1 [Example 391, N-{4-[1-(2,4-difluorobenzoyl)piperidin-4-yl]phenyl}-1-(pyridazin-3-yl)azetidine-3-carboxamide] | 5.99
27 | CC(C)c1ccc(C(=O)N2CCC(c3ccc(NC(=O)C4CN(c5cccnn5)C4)cc3)CC2)cc1 [Example 392, N-(4-{1-[4-(propan-2-yl)benzoyl]piperidin-4-yl}phenyl)-1-(pyridazin-3-yl)azetidine-3-carboxamide] | 3.54
28 | CC(C)(C)c1ccc(C(=O)N2CCC(c3ccc(NC(=O)C4CN(c5cccnn5)C4)cc3)CC2)cc1 [Example 393, N-{4-[1-(4-tert-butylbenzoyl)piperidin-4-yl]phenyl}-1-(pyridazin-3-yl)azetidine-3-carboxamide] | 3.72
29 | O=C(Nc1ccc(C2CCN(C(=O)c3cc(C(F)(F)F)ccc3F)CC2)cc1)C1CN(c2cccnn2)C1 [Example 394, N-(4-{1-[2-fluoro-5-(trifluoromethyl)benzoyl]piperidin-4-yl}phenyl)-1-(pyridazin-3-yl)azetidine-3-carboxamide] | 1.99
30 | O=C(Nc1ccc(C2CCN(C(=O)c3cc(C(F)(F)F)ccc3Cl)CC2)cc1)C1CN(c2cccnn2)C1 [Example 395, N-(4-{1-[2-chloro-5-(trifluoromethyl)benzoyl]piperidin-4-yl}phenyl)-1-(pyridazin-3-yl)azetidine-3-carboxamide] | 2.14
31 | O=C(Nc1ccc(O[C@@H]2CCN(C(=O)c3ccc(F)cc3)C2)cc1)C1CN(c2ccnnc2)C1 [Example 396, N-(4-{[(3R)-1-(4-fluorobenzoyl)pyrrolidin-3-yl]oxy}phenyl)-1-(pyridazin-4-yl)azetidine-3-carboxamide] | 68.5
32 | O=C(Nc1ccc(C2CCN(C(=O)CC3CCCC3)CC2)cc1)C1CN(c2cccnn2)C1 [Example 397, N-{4-[1-(cyclopentylacetyl)piperidin-4-yl]phenyl}-1-(pyridazin-3-yl)azetidine-3-carboxamide] | 3.35
33 | Cc1ccc(OCC(=O)N2CCC(c3ccc(NC(=O)C4CN(c5cccnn5)C4)cc3)CC2)cc1 [Example 398, N-(4-{1-[(4-methylphenoxy)acetyl]piperidin-4-yl}phenyl)-1-(pyridazin-3-yl)azetidine-3-carboxamide] | 8.19
34 | CC[C@H](C(=O)N1CCC(c2ccc(NC(=O)C3CN(c4cccnn4)C3)cc2)CC1)c1ccccc1 [Example 399, N-(4-{1-[(2S)-2-phenylbutanoyl]piperidin-4-yl}phenyl)-1-(pyridazin-3-yl)azetidine-3-carboxamide] | 6.35
35 | O=C(Nc1ccc(C2CCN(C(=O)c3cc(F)cc(F)c3)CC2)cc1)C1CN(c2cccnn2)C1 [Example 400, N-{4-[1-(3,5-difluorobenzoyl)piperidin-4-yl]phenyl}-1-(pyridazin-3-yl)azetidine-3-carboxamide] | 6.8
